In the kinase profiling compilation of Christmann-Franck et al. (2016):

How the values were obtained:
Test in all cases: radiometric filter-binding kinase assay
[1] = system: AKT2 (human), P31751 [S474D]
AURKA (human) = AURKA (human) (UniProt O14965)
AURKB (human) = AURKB (human) (UniProt Q96GD4)
CHEK1 (human) = CHEK1 (human) (UniProt O14757)
CSNK1D (human) = CSNK1D (human) (UniProt P48730)
EEF2K (human) = EEF2K (human) (UniProt O00418)
EPHB1 (human) = EPHB1 (human) (UniProt P54762)
EPHB4 (human) = EPHB4 (human) (UniProt P54760)
FGFR1 (human) = FGFR1 (human) (UniProt P11362)
FGFR1 (human), sequence (P11362 whole entry, looked up): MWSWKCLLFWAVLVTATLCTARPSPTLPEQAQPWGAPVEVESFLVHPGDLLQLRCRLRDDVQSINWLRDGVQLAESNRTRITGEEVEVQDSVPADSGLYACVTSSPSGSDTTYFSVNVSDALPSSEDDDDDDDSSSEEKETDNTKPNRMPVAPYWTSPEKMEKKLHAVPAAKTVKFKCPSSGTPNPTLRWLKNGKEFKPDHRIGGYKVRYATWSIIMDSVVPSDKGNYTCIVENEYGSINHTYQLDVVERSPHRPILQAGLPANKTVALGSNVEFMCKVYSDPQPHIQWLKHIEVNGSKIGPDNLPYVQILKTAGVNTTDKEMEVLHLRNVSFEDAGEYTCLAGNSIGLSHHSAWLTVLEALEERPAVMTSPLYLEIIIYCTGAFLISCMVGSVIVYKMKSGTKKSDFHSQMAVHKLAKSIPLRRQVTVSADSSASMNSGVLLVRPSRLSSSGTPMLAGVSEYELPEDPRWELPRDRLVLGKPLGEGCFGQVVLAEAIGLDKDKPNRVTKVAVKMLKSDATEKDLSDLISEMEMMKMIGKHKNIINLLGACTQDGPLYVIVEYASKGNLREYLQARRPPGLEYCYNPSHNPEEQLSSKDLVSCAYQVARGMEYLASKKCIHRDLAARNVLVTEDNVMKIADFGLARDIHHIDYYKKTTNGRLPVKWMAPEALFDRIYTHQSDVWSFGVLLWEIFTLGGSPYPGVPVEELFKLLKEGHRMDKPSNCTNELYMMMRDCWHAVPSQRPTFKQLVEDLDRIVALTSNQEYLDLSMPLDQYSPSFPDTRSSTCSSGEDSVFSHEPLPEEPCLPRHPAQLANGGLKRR

FLT1 (human) = FLT1 (human) (UniProt P17948); conditions: compound 10.0 µM
GCK (human) = GCK (human) (UniProt Q12851)
GSK3B (human) = GSK3B (human) (UniProt P49841)
HIPK1 (human) = HIPK1 (human) (UniProt Q86Z02)
HIPK2 (human) = HIPK2 (human) (UniProt Q9H2X6)
IGF1R (human) = IGF1R (human) (UniProt P08069)
MAP2K2 (human) = MAP2K2 (human) (UniProt P36507)
MAP3K1 (human) = MAP3K1 (human) (UniProt Q13233)
MAP3K5 (human) = MAP3K5 (human) (UniProt Q99683)
MAP3K9 (human) = MAP3K9 (human) (UniProt P80192)
MAPK1 (human) = MAPK1 (human) (UniProt P28482)
MAPK10 (human) = MAPK10 (human) (UniProt P53779)
MAPK13 (human) = MAPK13 (human) (UniProt O15264)
MAPK9 (human) = MAPK9 (human) (UniProt P45984)
MAPK9 (human), sequence (P45984 whole entry, looked up): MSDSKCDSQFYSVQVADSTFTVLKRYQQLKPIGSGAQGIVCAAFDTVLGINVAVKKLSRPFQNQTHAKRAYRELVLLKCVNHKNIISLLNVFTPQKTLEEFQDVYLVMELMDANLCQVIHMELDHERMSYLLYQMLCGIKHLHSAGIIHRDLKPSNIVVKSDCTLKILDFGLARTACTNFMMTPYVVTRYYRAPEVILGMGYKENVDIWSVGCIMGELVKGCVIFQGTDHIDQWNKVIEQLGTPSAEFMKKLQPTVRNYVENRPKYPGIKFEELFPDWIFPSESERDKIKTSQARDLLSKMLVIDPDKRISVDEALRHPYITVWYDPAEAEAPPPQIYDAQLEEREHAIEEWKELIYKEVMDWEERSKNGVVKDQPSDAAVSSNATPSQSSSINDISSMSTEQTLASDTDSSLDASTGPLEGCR

MARK4 (human) = MARK4 (human) (UniProt Q96L34)
MELK (human) = MELK (human) (UniProt Q14680)
MYLK (human) = MYLK (human) (UniProt Q15746)
MYLK (human), sequence (Q15746 whole entry, looked up): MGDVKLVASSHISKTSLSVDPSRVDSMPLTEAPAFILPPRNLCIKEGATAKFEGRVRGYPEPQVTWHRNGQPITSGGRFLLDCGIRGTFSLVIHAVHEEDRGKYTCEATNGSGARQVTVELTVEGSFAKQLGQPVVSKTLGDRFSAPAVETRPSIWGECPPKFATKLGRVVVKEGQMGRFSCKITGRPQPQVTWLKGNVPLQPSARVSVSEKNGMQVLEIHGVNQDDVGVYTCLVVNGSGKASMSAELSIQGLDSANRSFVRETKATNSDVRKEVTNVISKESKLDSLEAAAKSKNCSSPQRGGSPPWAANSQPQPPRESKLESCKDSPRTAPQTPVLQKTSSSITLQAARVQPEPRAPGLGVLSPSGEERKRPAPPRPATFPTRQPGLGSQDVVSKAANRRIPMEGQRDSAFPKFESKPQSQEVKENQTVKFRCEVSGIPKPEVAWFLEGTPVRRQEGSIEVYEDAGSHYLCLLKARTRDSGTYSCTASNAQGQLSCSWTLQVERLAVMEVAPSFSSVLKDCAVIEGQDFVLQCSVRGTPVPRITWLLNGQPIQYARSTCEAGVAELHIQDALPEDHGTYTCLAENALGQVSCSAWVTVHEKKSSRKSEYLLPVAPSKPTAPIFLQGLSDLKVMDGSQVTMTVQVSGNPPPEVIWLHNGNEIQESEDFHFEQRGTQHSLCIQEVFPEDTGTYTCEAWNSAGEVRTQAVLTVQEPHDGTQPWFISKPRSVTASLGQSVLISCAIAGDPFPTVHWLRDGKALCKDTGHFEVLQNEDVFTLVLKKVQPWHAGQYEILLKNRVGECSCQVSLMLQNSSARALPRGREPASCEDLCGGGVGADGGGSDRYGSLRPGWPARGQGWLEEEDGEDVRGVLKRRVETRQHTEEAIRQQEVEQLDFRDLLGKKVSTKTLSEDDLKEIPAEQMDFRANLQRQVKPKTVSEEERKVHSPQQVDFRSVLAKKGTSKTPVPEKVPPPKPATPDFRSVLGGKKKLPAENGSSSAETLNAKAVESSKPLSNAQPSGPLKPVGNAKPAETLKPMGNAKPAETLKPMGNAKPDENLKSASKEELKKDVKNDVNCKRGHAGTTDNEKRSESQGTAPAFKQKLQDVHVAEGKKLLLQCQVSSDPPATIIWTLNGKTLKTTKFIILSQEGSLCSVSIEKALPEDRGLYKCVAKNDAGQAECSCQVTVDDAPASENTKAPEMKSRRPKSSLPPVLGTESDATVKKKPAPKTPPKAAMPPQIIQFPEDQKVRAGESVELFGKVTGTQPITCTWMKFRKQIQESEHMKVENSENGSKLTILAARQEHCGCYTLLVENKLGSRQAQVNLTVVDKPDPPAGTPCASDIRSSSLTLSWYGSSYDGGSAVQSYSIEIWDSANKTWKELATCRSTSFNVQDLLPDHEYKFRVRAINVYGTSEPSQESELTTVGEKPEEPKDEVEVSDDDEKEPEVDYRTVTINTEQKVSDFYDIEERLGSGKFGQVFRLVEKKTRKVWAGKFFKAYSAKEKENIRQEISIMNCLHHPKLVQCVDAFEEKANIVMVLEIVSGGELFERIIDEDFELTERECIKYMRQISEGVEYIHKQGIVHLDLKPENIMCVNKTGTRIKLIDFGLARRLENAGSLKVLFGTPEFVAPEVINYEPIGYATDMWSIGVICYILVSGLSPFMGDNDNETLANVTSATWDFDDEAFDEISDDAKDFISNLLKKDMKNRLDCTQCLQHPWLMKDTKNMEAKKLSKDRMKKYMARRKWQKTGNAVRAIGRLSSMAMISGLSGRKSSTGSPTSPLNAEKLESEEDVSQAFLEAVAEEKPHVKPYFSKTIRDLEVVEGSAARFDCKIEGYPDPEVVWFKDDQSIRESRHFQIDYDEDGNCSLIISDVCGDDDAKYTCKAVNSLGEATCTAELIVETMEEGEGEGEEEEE

[2] = system: PAK2 (human), Q13177 [T402E]
PAK6 (human) = PAK6 (human) (UniProt Q9NQU5)
PKN2 (human) = PKN2 (human) (UniProt Q16513)
PRKCZ (human) = PRKCZ (human) (UniProt Q05513)
SRC (human) = SRC (human) (UniProt P12931)
[3] = target: STK11 CAB39 STRADA (human) (UniProt Q9Y376+Q7RTN6+Q15831)
SYK (human) = SYK (human) (UniProt P43405)
TAOK1 (human) = TAOK1 (human) (UniProt Q7L7X3)
TAOK1 (human), sequence (Q7L7X3 whole entry, looked up): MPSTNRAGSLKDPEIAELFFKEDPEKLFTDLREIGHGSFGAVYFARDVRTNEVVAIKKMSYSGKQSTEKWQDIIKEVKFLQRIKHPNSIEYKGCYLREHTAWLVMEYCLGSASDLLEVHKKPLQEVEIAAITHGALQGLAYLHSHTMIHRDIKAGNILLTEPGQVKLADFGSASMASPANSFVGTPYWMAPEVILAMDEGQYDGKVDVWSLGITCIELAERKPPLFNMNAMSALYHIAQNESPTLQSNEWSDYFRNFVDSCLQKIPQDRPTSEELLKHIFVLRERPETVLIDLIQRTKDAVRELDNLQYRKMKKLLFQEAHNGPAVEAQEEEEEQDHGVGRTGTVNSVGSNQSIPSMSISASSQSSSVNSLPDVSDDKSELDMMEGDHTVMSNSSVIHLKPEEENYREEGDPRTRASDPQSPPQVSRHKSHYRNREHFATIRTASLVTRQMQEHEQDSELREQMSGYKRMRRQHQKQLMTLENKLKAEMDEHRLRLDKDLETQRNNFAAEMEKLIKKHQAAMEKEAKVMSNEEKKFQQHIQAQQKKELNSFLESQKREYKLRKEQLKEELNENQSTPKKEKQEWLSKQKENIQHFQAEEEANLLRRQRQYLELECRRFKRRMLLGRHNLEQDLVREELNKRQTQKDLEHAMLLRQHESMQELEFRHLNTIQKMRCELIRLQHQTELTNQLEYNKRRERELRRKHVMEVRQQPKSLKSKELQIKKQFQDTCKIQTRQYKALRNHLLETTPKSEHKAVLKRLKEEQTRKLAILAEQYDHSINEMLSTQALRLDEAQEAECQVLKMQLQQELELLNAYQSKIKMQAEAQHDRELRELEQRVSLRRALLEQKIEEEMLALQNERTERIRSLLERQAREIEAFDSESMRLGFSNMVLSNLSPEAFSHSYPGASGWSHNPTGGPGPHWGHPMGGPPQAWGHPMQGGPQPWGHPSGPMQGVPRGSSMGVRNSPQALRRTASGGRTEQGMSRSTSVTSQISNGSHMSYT

TTK (human) = TTK (human) (UniProt P33981)
TTK (human), sequence (P33981 whole entry, looked up): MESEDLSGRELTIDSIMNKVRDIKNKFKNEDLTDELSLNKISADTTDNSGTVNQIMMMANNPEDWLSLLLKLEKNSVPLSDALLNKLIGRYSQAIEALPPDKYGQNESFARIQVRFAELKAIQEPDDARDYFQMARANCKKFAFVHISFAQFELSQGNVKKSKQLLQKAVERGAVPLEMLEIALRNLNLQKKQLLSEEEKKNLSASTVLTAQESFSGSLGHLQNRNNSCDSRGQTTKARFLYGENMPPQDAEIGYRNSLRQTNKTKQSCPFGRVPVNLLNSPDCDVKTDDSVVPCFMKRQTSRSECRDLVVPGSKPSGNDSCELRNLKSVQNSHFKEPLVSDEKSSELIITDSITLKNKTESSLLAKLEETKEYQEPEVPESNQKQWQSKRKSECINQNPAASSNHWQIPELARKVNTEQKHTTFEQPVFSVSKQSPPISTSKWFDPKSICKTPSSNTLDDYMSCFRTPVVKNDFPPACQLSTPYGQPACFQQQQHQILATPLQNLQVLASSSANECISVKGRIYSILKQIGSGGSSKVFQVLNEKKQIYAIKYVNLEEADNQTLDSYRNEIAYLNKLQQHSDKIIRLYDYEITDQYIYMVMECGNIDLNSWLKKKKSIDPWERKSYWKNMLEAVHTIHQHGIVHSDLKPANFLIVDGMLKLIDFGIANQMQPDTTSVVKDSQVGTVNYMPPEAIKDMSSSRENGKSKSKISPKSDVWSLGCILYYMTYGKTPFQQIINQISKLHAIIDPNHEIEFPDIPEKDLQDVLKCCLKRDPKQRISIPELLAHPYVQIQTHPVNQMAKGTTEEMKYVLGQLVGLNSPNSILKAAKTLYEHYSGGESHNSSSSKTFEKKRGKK

YES1 (human) = YES1 (human) (UniProt P07947)

Cc1ccc(-c2ccc3c(ccc4sc5c(c43)NC[C@@H](C)NC5=O)n2)cn1
residual activity ([1]; compound 1.0 µM): 90% | residual activity ([1]; compound 10.0 µM): 69% | residual activity (AURKA (human); compound 1.0 µM): 102% | residual activity (AURKA (human); compound 10.0 µM): 84% | residual activity (AURKB (human); compound 0.1 µM): 109% | residual activity (AURKB (human); compound 1.0 µM): 99% | residual activity (AURKB (human); compound 10.0 µM): 64% | residual activity (CHEK1 (human); compound 1.0 µM): 109% | residual activity (CHEK1 (human); compound 10.0 µM): 112% | residual activity (CSNK1D (human); compound 0.1 µM): 96% | residual activity (CSNK1D (human); compound 1.0 µM): 96% | residual activity (CSNK1D (human); compound 10.0 µM): 92% | residual activity (EEF2K (human); compound 0.1 µM): 106% | residual activity (EEF2K (human); compound 1.0 µM): 97% | residual activity (EEF2K (human); compound 10.0 µM): 85% | residual activity (EPHB1 (human); compound 0.1 µM): 113% | residual activity (EPHB1 (human); compound 1.0 µM): 106% | residual activity (EPHB1 (human); compound 10.0 µM): 106% | residual activity (EPHB4 (human); compound 0.1 µM): 110% | residual activity (EPHB4 (human); compound 1.0 µM): 106% | residual activity (EPHB4 (human); compound 10.0 µM): 99% | residual activity (FGFR1 (human); compound 0.1 µM): 95% | residual activity (FGFR1 (human); compound 1.0 µM): 91% | residual activity (FGFR1 (human); compound 10.0 µM): 68% | residual activity (FLT1 (human)): 65% | residual activity (GCK (human); compound 0.1 µM): 109% | residual activity (GCK (human); compound 1.0 µM): 89% | residual activity (GCK (human); compound 10.0 µM): 19% | residual activity (GSK3B (human); compound 0.1 µM): 126% | residual activity (GSK3B (human); compound 1.0 µM): 99% | residual activity (GSK3B (human); compound 10.0 µM): 88% | residual activity (HIPK1 (human); compound 0.1 µM): 111% | residual activity (HIPK1 (human); compound 1.0 µM): 104% | residual activity (HIPK1 (human); compound 10.0 µM): 130% | residual activity (HIPK2 (human); compound 1.0 µM): 113% | residual activity (HIPK2 (human); compound 10.0 µM): 78% | residual activity (IGF1R (human); compound 0.1 µM): 101% | residual activity (IGF1R (human); compound 1.0 µM): 108% | residual activity (IGF1R (human); compound 10.0 µM): 114% | residual activity (MAP2K2 (human); compound 0.1 µM): 113% | residual activity (MAP2K2 (human); compound 1.0 µM): 108% | residual activity (MAP2K2 (human); compound 10.0 µM): 79% | residual activity (MAP3K1 (human); compound 0.1 µM): 102% | residual activity (MAP3K1 (human); compound 1.0 µM): 109% | residual activity (MAP3K1 (human); compound 10.0 µM): 109% | residual activity (MAP3K5 (human); compound 0.1 µM): 106% | residual activity (MAP3K5 (human); compound 1.0 µM): 80% | residual activity (MAP3K5 (human); compound 10.0 µM): 10% | residual activity (MAP3K9 (human); compound 0.1 µM): 99% | residual activity (MAP3K9 (human); compound 1.0 µM): 95% | residual activity (MAPK1 (human); compound 0.1 µM): 102% | residual activity (MAPK1 (human); compound 10.0 µM): 81% | residual activity (MAPK10 (human); compound 0.1 µM): 120% | residual activity (MAPK10 (human); compound 1.0 µM): 104% | residual activity (MAPK10 (human); compound 10.0 µM): 102% | residual activity (MAPK13 (human); compound 0.1 µM): 108% | residual activity (MAPK13 (human); compound 1.0 µM): 103% | residual activity (MAPK13 (human); compound 10.0 µM): 94% | residual activity (MAPK9 (human); compound 0.1 µM): 123% | residual activity (MAPK9 (human); compound 1.0 µM): 111% | residual activity (MAPK9 (human); compound 10.0 µM): 107% | residual activity (MARK4 (human); compound 0.1 µM): 107% | residual activity (MARK4 (human); compound 1.0 µM): 87% | residual activity (MARK4 (human); compound 10.0 µM): 49% | residual activity (MELK (human); compound 0.1 µM): 123% | residual activity (MELK (human); compound 10.0 µM): 77% | residual activity (MYLK (human); compound 0.1 µM): 118% | residual activity (MYLK (human); compound 1.0 µM): 112% | residual activity (MYLK (human); compound 10.0 µM): 110% | residual activity ([2]; compound 0.1 µM): 102% | residual activity ([2]; compound 1.0 µM): 103% | residual activity ([2]; compound 10.0 µM): 93% | residual activity (PAK6 (human); compound 0.1 µM): 117% | residual activity (PAK6 (human); compound 1.0 µM): 106% | residual activity (PAK6 (human); compound 10.0 µM): 116% | residual activity (PKN2 (human); compound 0.1 µM): 108% | residual activity (PKN2 (human); compound 1.0 µM): 101% | residual activity (PKN2 (human); compound 10.0 µM): 81% | residual activity (PRKCZ (human); compound 0.1 µM): 115% | residual activity (PRKCZ (human); compound 1.0 µM): 112% | residual activity (PRKCZ (human); compound 10.0 µM): 106% | residual activity (SRC (human); compound 0.1 µM): 110% | residual activity (SRC (human); compound 1.0 µM): 116% | residual activity (SRC (human); compound 10.0 µM): 100% | residual activity ([3]; compound 0.1 µM): 118% | residual activity ([3]; compound 1.0 µM): 103% | residual activity ([3]; compound 10.0 µM): 97% | residual activity (SYK (human); compound 0.1 µM): 94% | residual activity (SYK (human); compound 10.0 µM): 82% | residual activity (TAOK1 (human); compound 0.1 µM): 109% | residual activity (TAOK1 (human); compound 1.0 µM): 98% | residual activity (TAOK1 (human); compound 10.0 µM): 70% | residual activity (TTK (human); compound 0.1 µM): 117% | residual activity (TTK (human); compound 1.0 µM): 101% | residual activity (TTK (human); compound 10.0 µM): 84% | residual activity (YES1 (human); compound 0.1 µM): 112% | residual activity (YES1 (human); compound 1.0 µM): 89% | residual activity (YES1 (human); compound 10.0 µM): 55%
